Legend:
Debaryomyces hansenii = assay: Wood preservative efficacy against bacteria and yeasts, tryptose agar plates; type: cell-based; set-up: key: 0 = growth equal to control, 1 = inhibition, 2 = no growth
Procedure: Compositions were prepared by dissolving the compounds shown in Table 1 in 50% ethanol and further diluting with sterile distilled water. […] After cooling, the medium was inoculated with the bacteria listed below. After sufficient growth of the untreated cultures, the compounds were evaluated using the following rating system: 0=growth equal to control 1=inhibition of growth by the compound 2=no growth under the influence of the compound. In this Table, the higher numbers are the most preferred species. Debaryomyces hansenii (yeast)

Coniophora puteana = assay: Activity against wood-rotting fungi, weight loss of impregnated wood blocks; settings: eight weeks at 22° C. and 70% relative humidity
Procedure: (§1) Sapwood blocks (50×20×6 mm) of Scots pine (Pinus sylvestris) and beech (Fagus sylvatica) were oven-dried at 104° C. The blocks were cooled, weighed, and impregnated with the test compound, by a vacuum treatment. Each concentration of the test compounds was applied to 7 replicates. By reweighing after each treatment, the uptake of active ingredient was calculated. Badly treated wood was discarded. For fixation of the active compound, the treated blocks were kept in a closed container for two weeks. The container was opened and the wood was dried for two more weeks. The test blocks were sterilized by gamma-irradiation (1.2 Mrad). Each treated block was placed on a mesh in an inoculated Petri dishes of malt agar, with an untreated (control) block. All the blocks were exposed to fungal attack for eight weeks at 22° C. and 70% relative humidity. At the end of the incubation period, the blocks were freed from adhering mycelium, oven dried at 104° C., allowed to cool, and weighed. The percentage weight loss of each block was calculated. Invalid results, due to waterlogging or insufficient moisture content, were not taken into account. The average weight loss of the treated blocks compared to the control blocks appears in Table 8.

Coriolus versicolor = assay: as above; settings: eight weeks at 22° C. and 70% relative humidity
Procedure: as §1

[1] = test system: molds and blue-stain fungi; assay: In vitro activity against molds and blue-stain fungi, poison plate assay (MIC); type: cell-based; settings: malt extract agar, complete inhibition
Method in brief: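 Poison plate format: compound diluted in sterile water and mixed into malt extract agar, then plates inoculated with each fungus. Growth inhibition scored at each concentration to give the MIC.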

[2] = test system: blue-stain fungi and molds; assay: Activity against blue-stain fungi and molds on a stick test on vermiculite (paint film); set-up: key to Surface score of wooden sticks treated with paint formulation, C. cladosporioides / Surface score of wooden sticks treated with paint formulation, P. purpurogenum / Surface score of wooden sticks treated with paint formulation, P. violacea / Surface score of wooden sticks treated with paint formulation, R rubra (y) / Surface score of wooden sticks treated with paint formulation, S. chartarum / Surface score of wooden sticks treated with paint formulation, A. versicolor / Surface score of wooden sticks treated with paint formulation, A. pullulans: 0: No growth; Trace of growth of up to 1% coverage of the test inoculated area; 2: Growth covering between 1 and 10% of the inoculated test area; Growth covering between 10 and 30% of the inoculated test area; 4: Growth covering between 30 and 70% of the inoculated test area; 5: Growth covering more than 70t of the inoculated test area; settings: 12 weeks on vermiculite; for Surface score of wooden sticks treated with paint formulation, R rubra (y): R rubra (yeast)
Method in brief: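 Painted, γ-sterilised beech sticks dipped in spore suspensions of each fungus, then held on moist vermiculite for 12 weeks. Surface fungal growth scored visually on a 0 (none) to 5 (over 70% of inoculated area) scale.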

[3] = test system: mixed spore suspension of blue-stain fungus and molds; assay: Activity against blue-stain fungi and molds in a mold cabinet test (BS3900: Part G6); set-up: key: 0: No growth; Trace of growth of up to 1% coverage of the test inoculated area; 2: Growth covering between 1 and 10% of the inoculated test area; Growth covering between 10 and 30% of the inoculated test area; 4: Growth covering between 30 and 70% of the inoculated test area; 5: Growth covering more than 70t of the inoculated test area
Method in brief: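 Painted Scots pine sticks, sterilized by irradiation, were treated with compound solutions, dipped in mixed spore suspension and held in a mold chamber for 12 weeks. Surface growth scored 0 (none) to 5 (>70% of inoculated area covered).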

[4] = higher treatment level, uptake 1271-1534 g.a.i./m3, control blocks lost 20-37%
[5] = lower treatment level, uptake 526-582 g.a.i./m3, control blocks lost 17-42%
[6] = higher treatment level, uptake 1136-1222 g.a.i./m3, control blocks lost 26-44%
[7] = lower treatment level, uptake 450-496 g.a.i./m3, control blocks lost 29-38%

SMILES: [O-][S+]1CCON=C1c1ccc(Cl)c(Cl)c1 (centres unmarked) [Compound 4]
- Score of bactericidal activity, D. hansenii (Debaryomyces hansenii; 10 ppm in tryptose agar): 2
- Score of bactericidal activity, D. hansenii (Debaryomyces hansenii; 100 ppm in tryptose agar): 2
- % weight loss, treated blocks (Coniophora) (Coniophora puteana; [4]): 0.3%
- % weight loss, treated blocks (Coniophora) (Coniophora puteana; [5]): 0.3%
- % weight loss, treated blocks (Coriolus) (Coriolus versicolor; [6]): 35%
- % weight loss, treated blocks (Coriolus) (Coriolus versicolor; [7]): 35%
- MIC (ppm) against A. amstelodami [1]: 10 ppm
- MIC (ppm) against A. niger [1]: 2.5 ppm
- MIC (ppm) against A. pullulans [1]: 10 ppm
- MIC (ppm) against A. versicolor [1]: 5 ppm
- MIC (ppm) against C. cladosporioides [1]: 10 ppm
- MIC (ppm) against C. pilifera [1]: 5 ppm
- MIC (ppm) against F. solani [1]: 10 ppm
- MIC (ppm) against G. candidum [1]: 25 ppm
- MIC (ppm) against P. purpurogenum [1]: 10 ppm
- MIC (ppm) against P. variotii [1]: 10 ppm
- MIC (ppm) against P. violacea [1]: 25 ppm
- MIC (ppm) against S. atra [1]: 2.5 ppm
- MIC (ppm) against S. entoxylina [1]: 10 ppm
- MIC (ppm) against T. viride [1]: 25 ppm
- MIC (ppm) against U. atrum [1]: 25 ppm

SMILES: [O-][S+]1CCON=C1c1cccs1 (centres unmarked) [Compound 8]
- Score of bactericidal activity, D. hansenii (Debaryomyces hansenii; 10 ppm in tryptose agar): 2
- Score of bactericidal activity, D. hansenii (Debaryomyces hansenii; 100 ppm in tryptose agar): 2
- % weight loss, treated blocks (Coniophora) (Coniophora puteana; [4]): 0.7%
- % weight loss, treated blocks (Coniophora) (Coniophora puteana; [5]): 0.9%
- % weight loss, treated blocks (Coriolus) (Coriolus versicolor; [6]): 3.5%
- % weight loss, treated blocks (Coriolus) (Coriolus versicolor; [7]): 24%
- MIC (ppm) against A. amstelodami [1]: 10 ppm
- MIC (ppm) against A. niger [1]: 25 ppm
- MIC (ppm) against A. pullulans [1]: >25 ppm
- MIC (ppm) against A. versicolor [1]: 10 ppm
- MIC (ppm) against C. cladosporioides [1]: >25 ppm
- MIC (ppm) against C. pilifera [1]: 5 ppm
- MIC (ppm) against F. solani [1]: 25 ppm
- MIC (ppm) against G. candidum [1]: >25 ppm
- MIC (ppm) against P. purpurogenum [1]: >25 ppm
- MIC (ppm) against P. variotii [1]: >25 ppm
- MIC (ppm) against P. violacea [1]: 25 ppm
- MIC (ppm) against S. atra [1]: 10 ppm
- MIC (ppm) against S. entoxylina [1]: 10 ppm
- MIC (ppm) against T. viride [1]: >25 ppm
- MIC (ppm) against U. atrum [1]: 25 ppm
- Surface score of wooden sticks treated with paint formulation, A. pullulans ([2]; 0.15% a.i. in paint): 0
- Surface score of wooden sticks treated with paint formulation, A. pullulans ([2]; 0.3% a.i. in paint): 0
- Surface score of wooden sticks treated with paint formulation, A. versicolor ([2]; 0.15% a.i. in paint): 0
- Surface score of wooden sticks treated with paint formulation, A. versicolor ([2]; 0.3% a.i. in paint): 0
- Surface score of wooden sticks treated with paint formulation, C. cladosporioides ([2]; 0.15% a.i. in paint): 0
- Surface score of wooden sticks treated with paint formulation, C. cladosporioides ([2]; 0.3% a.i. in paint): 0
- Surface score of wooden sticks treated with paint formulation, P. purpurogenum ([2]; 0.15% a.i. in paint): 0
- Surface score of wooden sticks treated with paint formulation, P. purpurogenum ([2]; 0.3% a.i. in paint): 0
- Surface score of wooden sticks treated with paint formulation, P. violacea ([2]; 0.15% a.i. in paint): 4 (Growth covering between 30 and 70% of the inoculated test area)
- Surface score of wooden sticks treated with paint formulation, P. violacea ([2]; 0.3% a.i. in paint): 0
- Surface score of wooden sticks treated with paint formulation, R rubra (y) ([2]; 0.15% a.i. in paint): 1 (Trace of growth of up to 1% coverage of the test inoculated area)
- Surface score of wooden sticks treated with paint formulation, R rubra (y) ([2]; 0.3% a.i. in paint): 1 (Trace of growth of up to 1% coverage of the test inoculated area)
- Surface score of wooden sticks treated with paint formulation, S. chartarum ([2]; 0.15% a.i. in paint): 0
- Surface score of wooden sticks treated with paint formulation, S. chartarum ([2]; 0.3% a.i. in paint): 0
- Surface score of wooden sticks treated with paint formulation, U. atrum ([2]; 0.15% a.i. in paint): 1 (Trace of growth of up to 1% coverage of the test inoculated area)
- Surface score of wooden sticks treated with paint formulation, U. atrum ([2]; 0.3% a.i. in paint): 1 (Trace of growth of up to 1% coverage of the test inoculated area)
- Surface score in a paint formulation in a mold cabinet test, 6 weeks ([3]; 0.15% in water-based paint): 0
- Surface score in a paint formulation in a mold cabinet test, 12 weeks ([3]; 0.15% in water-based paint): 2.0
- Surface score in a paint formulation in a mold cabinet test, 6 weeks ([3]; 0.3% in water-based paint): 0
- Surface score in a paint formulation in a mold cabinet test, 12 weeks ([3]; 0.3% in water-based paint): 1.5
